In patent US20050119288A1, “Dosing schedule for a novel anticancer agent” (Pfizer Inc, priority 2003, published 2005):
Read-outs that look alike come from different tables or passages of the source.

Columns and labels:
[1] = biological target: erbB2 receptor autophosphorylation (Homo sapiens, UniProt P04626); experiment: p-erbB2 reduction in SK-OV-3 tumors by ELISA; type: in vivo; conditions: 0.5 hr post-dosing on day 18
Description: SK-OV-3 cells obtained from ATCC (Rockville, Md.) were grown in McCoy's medium containing 10% fetal bovine serum and pen/strep. Exponentially growing cells were harvested and inoculated SC (5 million cells/animal) into female athymic mice. The tumor measurements and body weight changes were obtained on days 1, 3, 6, 10, 13 and 18. Tumor volume was calculated by the following formula: Tumor volume (mm^3)═(W×W)/2×L (L=length & W=width). Blood samples (˜50 μl) were isolated at 0.5, 1, 2, 4 and 8 hrs after dosing on day 18 for PK-analysis. Tumors were isolated at 0.5 hr post-dosing on day 18 for PD-analysis by ELISA.

[2] = Body weight and tolerability, MDA-MB-453 study; type: in vivo, mice; conditions: PO
Description: Study Design: Exponentially growing MDA-MB-453 cells (DMEM/F12 with 10% FBS, and pen/strep [Gibco]) were harvested and inoculated SC (5 million cells/animal) into female athymic mice. MDA-MB-453 tumor bearing mice (˜100 mm^3 in size, N=64) were randomized in 8 groups consisting 8 animals each. Animals were treated with vehicle (PO, QD or BID) or the test compound (PO, QD or BID) as described in Table 6. The tumor measurements and body weight changes were obtained on days 1, 3, 7, 10, 14, 17, 21, 24, and 29. Tumor volume was calculated by the following formula: Tumor volume (mm^3)═(W×W)/2×L (L=length & W=width). Blood samples (˜50 μl) were isolated at 0.5, 1, 2, 4 and 8 hrs after dosing on day 29 for PK-analysis. Tumors were isolated at 0.5 hr post-dosing on day 29 for PD-analysis by ELISA.

[3] = Pharmacokinetics in BT-474 tumor-bearing mice; type: in vivo; conditions: for Cave0-4 h: PO, day 22; for AUC(0-t) / Cmax: female, athymic, mouse, blood, po; for Cmax: day 22, read-out: Cmax 0.5 h
Description: Exponentially growing BT-474 cells (RPMI 1640 with 10 mM HEPES, 10% FBS, and pen/strep [Gibco]) were harvested and inoculated SC (5 million cells/animal) into female athymic mice. Trochar pieces of BT-474 tumors were then implanted into the right flank of animals. BT-474 tumor bearing mice (50-320 mm^3 in size, N=40) were randomized in 7 groups consisting 5-6 animals each. Animals were treated with vehicle (PO, BID) or the test compound (PO, QD or BID) as described in Table 4. The tumor measurements and body weight changes were obtained on days 1, 6, 11, 15 and 22. Tumor volume was calculated by the following formula: Tumor volume (mm^3)═(W×W)/2×L (L=length & W=width). Blood samples (˜50 μl) were isolated at 0.5, 1, 2, 4 and 8 hrs after dosing on day 22 for PK-analysis. Tumors were isolated at 0.5 hr post-dosing on day 22 for PD-analysis by ELISA.

Sequence of erbB2 receptor autophosphorylation (P04626 23-1255): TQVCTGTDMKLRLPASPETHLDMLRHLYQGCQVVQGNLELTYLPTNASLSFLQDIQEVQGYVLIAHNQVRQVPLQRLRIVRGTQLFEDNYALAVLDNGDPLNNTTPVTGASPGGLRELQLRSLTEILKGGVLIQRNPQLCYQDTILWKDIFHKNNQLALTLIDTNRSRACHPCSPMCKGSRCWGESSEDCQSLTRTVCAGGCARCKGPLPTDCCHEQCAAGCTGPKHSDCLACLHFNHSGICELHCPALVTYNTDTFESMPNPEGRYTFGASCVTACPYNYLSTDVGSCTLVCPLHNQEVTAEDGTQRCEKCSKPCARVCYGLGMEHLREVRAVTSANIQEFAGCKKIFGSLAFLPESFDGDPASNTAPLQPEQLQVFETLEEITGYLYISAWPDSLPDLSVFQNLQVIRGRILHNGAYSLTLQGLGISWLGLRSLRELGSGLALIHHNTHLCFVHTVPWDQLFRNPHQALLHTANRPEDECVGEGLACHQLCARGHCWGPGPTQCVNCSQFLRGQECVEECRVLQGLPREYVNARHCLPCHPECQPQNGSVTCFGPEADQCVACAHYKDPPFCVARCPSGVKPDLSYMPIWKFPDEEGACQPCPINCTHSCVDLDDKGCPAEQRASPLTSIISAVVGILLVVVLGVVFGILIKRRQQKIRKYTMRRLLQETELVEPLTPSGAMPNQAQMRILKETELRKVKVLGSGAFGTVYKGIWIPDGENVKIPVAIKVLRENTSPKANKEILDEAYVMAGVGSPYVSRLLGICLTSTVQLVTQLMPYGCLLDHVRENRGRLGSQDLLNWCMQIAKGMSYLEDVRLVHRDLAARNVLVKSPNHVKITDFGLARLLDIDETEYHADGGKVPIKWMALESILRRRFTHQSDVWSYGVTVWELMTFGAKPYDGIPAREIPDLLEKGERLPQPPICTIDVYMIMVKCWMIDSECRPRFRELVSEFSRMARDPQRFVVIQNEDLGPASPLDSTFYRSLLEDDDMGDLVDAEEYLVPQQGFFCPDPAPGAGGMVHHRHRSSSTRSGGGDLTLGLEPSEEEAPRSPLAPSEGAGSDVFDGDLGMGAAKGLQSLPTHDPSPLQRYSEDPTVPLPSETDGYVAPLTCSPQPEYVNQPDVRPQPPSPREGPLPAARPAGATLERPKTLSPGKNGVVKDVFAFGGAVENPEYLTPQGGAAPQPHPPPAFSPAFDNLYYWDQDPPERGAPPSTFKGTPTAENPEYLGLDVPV

For `COCC(=O)NC/C=C/c1ccc2ncnc(Nc3ccc(Oc4ccc(C)nc4)c(C)c3)c2c1` [Test Compound, E-2-Methoxy-N-(3-{4-(3-methyl-4-(6-methyl-pyridin-3-yloxy)-phenylamino)-quinazolin-6-yl}-allyl)-acetamide], the inhibition in vivo at 25 mg/kg ([1]; SK-OV-3, po, 0.5 h, PO, BID 25 mg/kg (Total Daily Dose = 50 mg/kg)) was 20%, the inhibition in vivo at 50 mg/kg ([1]; SK-OV-3, po, 0.5 h, PO, BID 50 mg/kg (Total Daily Dose = 100 mg/kg)) was 24% and the inhibition in vivo at 100 mg/kg ([1]; SK-OV-3, po, 0.5 h, PO, BID 100 mg/kg (Total Daily Dose = 200 mg/kg)) was 62%. It also gave an inhibition in vivo at 50 mg/kg ([1]; SK-OV-3, po, 0.5 h, PO, QD 50 mg/kg) of 14%, an inhibition in vivo at 100 mg/kg ([1]; SK-OV-3, po, 0.5 h, PO, QD 100 mg/kg) of 75% and an inhibition in vivo at 200 mg/kg ([1]; SK-OV-3, po, 0.5 h, PO, QD 200 mg/kg) of 90%. For the same molecule, the “reduction of erbB2 receptor autophosphorylation” value ([1]; span over 50 mg/kg QD and 25 mg/kg BID) was 14-20%, the “average body weight Day 1” value ([2]; BID 25 mg/kg) was 22 g and the “average body weight Day 29” value ([2]; BID 25 mg/kg) was 23 g. For the same molecule, the “average body weight Day 1” value ([2]; BID 50 mg/kg) was 23 g, the “average body weight Day 29” value ([2]; BID 50 mg/kg) was 24 g and the “average body weight Day 1” value ([2]; BID 100 mg/kg) was 23 g. For the same molecule, the “average body weight Day 29” value ([2]; BID 100 mg/kg) was 25 g, the “average body weight Day 1” value ([2]; QD 50 mg/kg) was 23 g and the “average body weight Day 29” value ([2]; QD 50 mg/kg) was 25 g. The “average body weight Day 1” value ([2]; QD 100 mg/kg) was 23 g, the “average body weight Day 29” value ([2]; QD 100 mg/kg) was 25 g and the “average body weight Day 1” value ([2]; QD 200 mg/kg) was 22 g. For the same molecule, the “average body weight Day 29” value ([2]; QD 200 mg/kg) was 24 g, the “tolerability, body weight loss or animal mortality” value ([2]; QD or BID, 29 days) was “well tolerated and there was no body weight loss or animal mortality” and the Cave0-4 h ([3]; 15 mg/kg, BID) was 120 ng/mL. The Cave0-4 h ([3]; 30 mg/kg, BID, estimated based on the extrapolated concentration at 4 hr from 2 hr and 8 hr exposures) was 360 ng/mL, the Cave0-4 h ([3]; 30 mg/kg, QD, estimated based on the extrapolated concentration at 4 hr from 2 hr and 8 hr exposures) was 320 ng/mL and the Cave0-4 h ([3]; 50 mg/kg, BID) was 1320 ng/mL. The Cave0-4 h ([3]; 50 mg/kg, QD, estimated based on the extrapolated concentration at 4 hr from 2 hr and 8 hr exposures) was 1060 ng/mL, the AUC(0-t) ([3]; 15 mg/kg, BID, day 22, read-out: AUC0-4 h) was 480 ng·h/mL and the Cmax ([3]; 15 mg/kg, BID) was 616 ng/mL. For the same molecule, the Cmax ([3]; 15 mg/kg, QD) was 250 ng/mL, the AUC(0-t) ([3]; 30 mg/kg, BID, day 22, estimated based on the extrapolated concentration at 4 hr from 2 hr and 8 hr exposures, read-out: AUC0-4 h) was 1440 ng·h/mL and the Cmax ([3]; 30 mg/kg, BID) was 1570 ng/mL. For the same molecule, the AUC(0-t) ([3]; 30 mg/kg, QD, day 22, estimated based on the extrapolated concentration at 4 hr from 2 hr and 8 hr exposures, read-out: AUC0-4 h) was 1280 ng·h/mL, the Cmax ([3]; 30 mg/kg, QD) was 1800 ng/mL and the AUC(0-t) ([3]; 50 mg/kg, BID, day 22, read-out: AUC0-4 h) was 5280 ng·h/mL. It also gave a Cmax ([3]; 50 mg/kg, BID) of 6170 ng/mL, an AUC(0-t) ([3]; 50 mg/kg, QD, day 22, estimated based on the extrapolated concentration at 4 hr from 2 hr and 8 hr exposures, read-out: AUC0-4 h) of 4220 ng·h/mL and a Cmax ([3]; 50 mg/kg, QD) of 5890 ng/mL.
